Read-outs that look alike come from different tables or passages of the source.
Experiments:
[1] = Human crossover pharmacokinetic interaction study of WM (Tamiflu) alone or with CMF1; assay type: in vivo, human (Chinese male healthy volunteers); conditions: human; for half-life: read-out: T 1/2 (terminal half-life) (converted); for Tmax: read-out: T max
Procedure: Normal healthy Chinese male subjects aged 20–45 years were recruited in this study. […] The study was conducted using a single-center, randomized, open-labeled, multiple dose (5 days), two-treatment, two-period, two-sequence crossover design. […] Each subject underwent two treatment sessions (periods I and II), and each session consists of 5-day treatment (twice daily for day 1 to day 4, morning dose for day 5). The two treatment sessions were separated by a washout period of 2 weeks. 250 mL water was used for WM (Tamiflu capsule, 75 mg per dose) administration. […] Drinking water was not allowed from 1 h predose to 1 h postdose except that needed for drug dosing. […] All blood and urine collection was taken on day 5 of each treatment session. […] Blood samples were collected from a catheter, which was placed in the forearm vein before dosing. At the specified time, 5 mL of blood was drawn (except for 0 time and at 2 h which was 10 mL each for additional antiviral activity determination) and stored in vacuette lithium heparin tubes (Greiner Bio-One). […] Plasma samples were collected after centrifugation and then stored at −80°C until assay. Urine was also collected (and the volume was recorded) at pre-dose, 0–4, 4–8, and 8–12 h intervals. […] After mixing and centrifugation, the supernatant was loaded in prewashed Oasis MCX cartridge (1 cc, 30 mg, Waters) and the cartridge was rinsed subsequently with 1% formic acid, water, and methanol followed by vacuum dried for 20 min. The analytes were then eluted with 1 mL of 1% ammonia in methanol. The eluting solvent was dried by a vacuum concentrator and the residue was reconstituted with 200 μL of 0.1% formic acid : methanol (1 : 1 v/v) prior to HPLC/MS/MS analysis using an ABI 2000 Q-Trap triple quadrupole mass spectrometer (Applied Biosystems) coupled with PE-200 series micropumps and autosampler (Perkin-Elmer). […] In human study, trough concentration (C trough) was defined as the minimum concentration obtained and was obtained at 12 h post-dose. […] In human studies, the comparison of WM + CMF1 to WM alone treatments was evaluated using a 90% confidence intervals (90% CI) approach (USFDA guideline, Drug Interactions Studies, September 2006). […] The statistical model included terms describing the effects attributable to sequence, subject (nested in sequence), period, and treatment (formulation). […] Difference in the median T max between both treatments was evaluated using Wilcoxon signed-rank test. For comparison of the human antiviral activities, one-way analysis of variance in conjunction with post hoc Turkey's range test was performed.

[2] = Rat in situ intestinal perfusion model, effect of CMF1 on absorption of OA; assay type: in vivo; conditions: CMF1 6.8 mg/mL vs OA alone (Figure 2)
Procedure: In view of the consistent effect of CMF1 on OA and OC, further confirmation was performed using rat in situ intestinal perfusion model as described previously. Perfusion concentrations were set at 6.8 mg/mL for CMF1. The flow rate of perfusate applied to the intestinal lumen was set at 0.3 mL/min. Samples obtained from the mesenteric vein were collected into the preweighted 2 mL centrifuge tubes (each containing 30 μL of 10 mg/mL saline solution of dichlorvos) at every 5 min. All collected samples were weighted and centrifuged at 13,000 rpm for 4 min immediately. The plasma samples were stored at −80°C refrigerator until further treated by SPE and analyzed by LC/MS/MS assay as described above.

H3N2 = tested on: H3N2; design: method as in PMID 20215135; conditions: read-out: inhibitory concentrations (IC50) against H3N2; cited from earlier work
influenza virus strains = tested on: influenza virus strains; design: method as in PMID 20215135; conditions: read-out: inhibitory concentrations (IC50) against influenza virus strains; cited from earlier work
[3] = cited from earlier work
[4] = geometric mean ratio of (WM + CMF1)/WM
[5] = male, in vivo, 75 mg, day 5, WM alone, n = 14, arithmetic mean ± SD
[6] = male, in vivo, day 5, WM + CMF1, n = 14, arithmetic mean ± SD

CCC(CC)O[C@@H]1C=C(C(=O)O)C[C@H](N)[C@H]1NC(C)=O [OC, oseltamivir carboxylate]
lowering of 12 h cumulative amount excreted in urine by co-administration of CMF1 [1]: ~ 14% | 12 h Cum. amt. in urine, geometric mean ([1]; WM + CMF1, n = 14): 61224.10 µg | 12 h Cum. amt. in urine, geometric mean ([1]; WM alone, n = 14): 71215.61 µg | time to reach peak maximum in plasma ([1]; approximate value): 4 to 5 h | 12 h Cum. amt. in urine ([1]; day 5, WM + CMF1, n = 14, arithmetic mean ± SD): 62087 ± 10741 µg | 12 h Cum. amt. in urine ([1]; day 5, WM alone, n = 14, arithmetic mean ± SD): 72851 ± 15312 µg | GM Ratio of 12 h Cum. amt. in urine [1, 4]: 85.97% | GM Ratio of AUC0–12 h [1, 4]: 91.32% | GM Ratio of C max [1, 4]: 91.32% | concentration of OC in plasma relative to the respective OA ([1]; oral WM): ~ 10 fold | AUC(0-t) ([1]; male, in vivo, 75 mg, WM alone, n = 14, read-out: AUC0–12 h, geometric mean): 4450 ng·h/mL | Cmax ([1]; male, in vivo, 75 mg, WM alone, n = 14, read-out: C max, geometric mean): 526 ng/mL | CL renal ([1]; male, in vivo, 75 mg, approximate value, read-out: renal clearance (converted)): ~267 mL/min | concentration at 12 h ([1]; male, in vivo, 75 mg, day 5, WM alone (Tamiflu 75 mg bid), n = 14, arithmetic mean ± SD, read-out: C trough (plasma concentration at 12 h postdose)): 207 ± 67.7 ng/mL | AUC(0-t) ([1]; male, in vivo, 75 mg, day 5, WM alone, n = 14, arithmetic mean ± SD, read-out: AUC0–12 h): 4580 ± 1160 ng·h/mL | Cmax ([1]; male, in vivo, 75 mg, day 5, WM alone, n = 14, arithmetic mean ± SD, read-out: C max): 536 ± 102 ng/mL | CL renal ([1]; male, in vivo, 75 mg, day 5, WM alone, n = 14, arithmetic mean ± SD, read-out: Renal clearance (converted)): 272 mL/min | AUC(0-t) ([1]; male, in vivo, WM + CMF1, n = 14, read-out: AUC0–12 h, geometric mean): 4070 ng·h/mL | Cmax ([1]; male, in vivo, WM + CMF1, n = 14, read-out: C max, geometric mean): 481 ng/mL | concentration at 12 h ([1]; male, in vivo, both WM and WM + CMF1 treatments, approximate value, read-out: mean C trough): ~200 ng/mL | concentration at 12 h ([1]; male, in vivo, both WM and WM + CMF1 treatments, read-out: mean C trough, molar equivalent): ~704 nM | concentration at 2 h ([1]; male, in vivo, both treatments (WM and WM + CMF1), read-out: 2 h post-dose plasma concentration): 410 to 436 ng/mL | concentration at 12 h ([1]; male, in vivo, day 5, WM + CMF1 (10 g per dose), n = 14, arithmetic mean ± SD, read-out: C trough (plasma concentration at 12 h postdose)): 195 ± 51.2 ng/mL | AUC(0-t) ([1]; male, in vivo, day 5, WM + CMF1, n = 14, arithmetic mean ± SD, read-out: AUC0–12 h): 4140 ± 783 ng·h/mL | Cmax ([1]; male, in vivo, day 5, WM + CMF1, n = 14, arithmetic mean ± SD, read-out: C max): 487 ± 82.7 ng/mL | CL renal ([1]; male, in vivo, day 5, WM + CMF1, n = 14, arithmetic mean ± SD, read-out: Renal clearance (converted)): 257 mL/min | half-life [1, 5]: 310 ± 76.2 min | Tmax [1, 5]: 4.21 ± 0.97 h | half-life [1, 6]: 342 ± 81 min | Tmax [1, 6]: 3.5 ± 0.94 h | accumulated amount in rat mesenteric blood in presence of CMF1 [2]: decreased without statistical significance | IC50 (H3N2): 0.2 to 0.6 nM | IC50 (influenza virus strains): 0.01 to 69.2 nM | effect of food on bioavailability [3]: no significant effect | maximum plasma oseltamivir carboxylate concentration ([3]; following 50 mg doses): about 230 μg/L | absolute oral bioavailability of OC from orally administered OA ([3]; oral OA): 80% | half-life ([3]; oral OA): 6 to 10 h

Source: PMC3912631, “Bench to Bed Evidences for Pharmacokinetic and Pharmacodynamic Interactions Involving Oseltamivir and Chinese Medicine” (Evidence-based Complementary and Alternative Medicine : eCAM, 2014)
